Consider six compounds from ChEMBL document CHEMBL1201862, “PubChem BioAssay data set” (2004).

Activity calls are given as the source filed them. Bounds are passed on as bounds.

A word on the EC50: it is the concentration at which the effect is half-maximal. As a reminder, the CC50 is the concentration at which the toxic effect on the cells reaches its halfway point. By AC50 is commonly meant the concentration at which the activity in the assay is half-maximal.

The nature of test [1]: cytotoxicity toward NIH3T3 fibroblasts, dose response, counter-screen, cell-based, ATP luminescence, mouse fibroblasts (AID 2010).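 Also: cells exposed to compound for about 90 hours before reading.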 Type of test: functional.
Another test in a line: cells. Type of test: functional.
The nature of test [2]: inhibitors of intracellular T. cruzi replication, confirmation, NIH3T3 host cells, beta-gal luminescence (AID 2044).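 Also: intracellular parasites grown in NIH/3T3 mouse fibroblasts as host cells; luminescent beta-galactosidase reporter signal from transgenic T. cruzi replicating inside host cells; inhibitors lower the luminescence signal.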 Type of test: functional, cell-based.
A short description of test [3]: Vero E6 cell cytotoxicity, dose response, cytotoxicity control for non-replicating M. tuberculosis project, secondary assay (AID 492998). To be noted: Vero C1008. Type of test: functional, VeroE6.
Test [4] is described as follows: THP-1 cell cytotoxicity, dose response, cytotoxicity control for non-replicating M. tuberculosis project (AID 489025). Type of test: functional.
Test [5] in a line: HepG2 cell cytotoxicity, dose response, cytotoxicity control for non-replicating M. tuberculosis project (AID 489018). Type of test: functional. To be noted: Mycobacterium tuberculosis.
Test [6] is described as follows: control 3'UTR Renilla luciferase suppression, dose response, counter-screen for Shn3 inhibitor project, cell-based, Clone20-Shn3RL, cherry-picked (AID 624133). Format: functional. On the technique in general: Counterscreens check selectivity or assay interference.
Test [7] is described as follows: reduction of Shn3 3'UTR firefly luciferase signal, dose response, Schnurri-3 inhibitor project, cell-based, Clone20 osteoblasts, cherry-pick, set 2 (AID 720490).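 Also: actives lower the luminescence signal as inhibitors.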 Format: functional.
Test [8] in a line: Luminescence Cell-Based Dose Retest to Confirm Inhibitors of Cancer Stem Cells. [Related pubchem assays (depositor defined):AID2717, AID2721]. To be noted: Homo sapiens. Type of test: functional.
Another test concerns the target Beta-galactosidase (Escherichia coli, UniProt Q8VNN2). The experiment in a line: beta-galactosidase enzyme inhibitors and activators, dose response, artefact control for CCR6 antagonist project, biochemical, E. coli enzyme, set 3 (AID 504712). Type of test: functional.
Test [9] can be described thus: Shn3 3'UTR reporter inhibitors, dose response, cell-based, Clone20 osteoblasts, firefly luciferase, cherry-picked (AID 624132).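 Also: firefly luciferase luminescence from reporter carrying the Shn3 3'UTR in osteoblasts.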 Format: functional.
The nature of test [10]: HepG2 cell cytotoxicity, dose response, cytotoxicity control for Shn3 inhibitor project, CellTiter-Glo, cherry-picked (AID 624134). Format: functional, cell-based. In general terms: ATP-based viability assays read luminescence as a measure of living cells.
Test [11] concerns the target Glucose-6-phosphate 1-dehydrogenase (Homo sapiens, UniProt P11413). Kind of test: human G6PD enzyme inhibitors, dose response, selectivity assay for P. falciparum G6PD inhibitor project, biochemical, fluorescence (AID 504792). Format: functional.
Test [12] addresses Heat shock protein HSP 90-alpha (Homo sapiens, UniProt P07900). Type of test: functional, organism-based.
A short description of test [13]: inhibitors of control Renilla luciferase reporter, dose response, counter-screen for Shn3 3'UTR targeting project, Clone20-Shn3RL cells, dual-Glo, cherry-pick, set 2 (AID 720724). Format: functional, cell-based. Conditions: Dual-Go Shn3RL. (In a reporter assay the amount or activity of a reporter protein is the signal.)
The target in test [14] is DNA dC->dU-editing enzyme APOBEC-3G (Homo sapiens, UniProt Q9HC16). The experiment in a line: Dose Response confirmation of small molecule APOBEC3G DNA Deaminase Inhibitors via a fluorescence-based single-stranded DNA deaminase assay. [Related pubchem assays (depositor defined):AID493012, AID493028]. Type of test: functional.
Sequence of DNA dC->dU-editing enzyme APOBEC-3G (Q9HC16 whole entry): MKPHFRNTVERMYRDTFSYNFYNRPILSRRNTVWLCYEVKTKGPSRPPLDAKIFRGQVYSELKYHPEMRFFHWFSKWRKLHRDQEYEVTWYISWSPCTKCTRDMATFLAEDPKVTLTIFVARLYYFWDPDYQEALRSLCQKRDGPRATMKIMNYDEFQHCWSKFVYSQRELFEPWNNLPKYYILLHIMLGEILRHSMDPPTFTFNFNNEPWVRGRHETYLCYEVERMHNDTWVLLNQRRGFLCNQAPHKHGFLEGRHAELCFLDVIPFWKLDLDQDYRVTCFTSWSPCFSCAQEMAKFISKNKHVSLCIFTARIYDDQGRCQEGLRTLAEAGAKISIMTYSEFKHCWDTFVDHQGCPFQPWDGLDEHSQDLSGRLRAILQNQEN
Test [15] has as its target G-protein coupled receptor 55 (Homo sapiens, UniProt Q9Y2T6). Kind of test: GPR55 antagonists blocking LPI-driven arrestin recruitment, primary screen, imaging, U2OS, beta-arrestin-GFP, LPI agonist (AID 2013).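 Also: antagonist potency measured as reduced agonist-driven arrestin aggregation.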 Format: functional.
In test [16] the target is FAD-linked sulfhydryl oxidase ALR (Homo sapiens, UniProt P55789). Kind of test: inhibitors of human ALR sulfhydryl oxidase, dose response, biochemical, H2O2 detection, luminescence, cherry-pick (AID 493248).
Sequence of FAD-linked sulfhydryl oxidase ALR (P55789 whole entry): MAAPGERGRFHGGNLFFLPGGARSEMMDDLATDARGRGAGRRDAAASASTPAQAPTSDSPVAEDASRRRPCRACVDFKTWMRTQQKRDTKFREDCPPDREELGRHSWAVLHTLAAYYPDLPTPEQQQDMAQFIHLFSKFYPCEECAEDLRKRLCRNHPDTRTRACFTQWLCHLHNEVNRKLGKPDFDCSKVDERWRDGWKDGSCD
In test [17] the target is T1, Polyadenylate-binding protein 1 (Homo sapiens, UniProt P11940). Kind of test: PABP1 MLLE–PAM2 binding inhibitor potency, dose response, biochemical, fluorescence polarization, FITC-PAM2 peptide (AID 602259). Format: functional. To be noted: read-out: IC50_Mean.
T1 sequence (P11940 whole entry): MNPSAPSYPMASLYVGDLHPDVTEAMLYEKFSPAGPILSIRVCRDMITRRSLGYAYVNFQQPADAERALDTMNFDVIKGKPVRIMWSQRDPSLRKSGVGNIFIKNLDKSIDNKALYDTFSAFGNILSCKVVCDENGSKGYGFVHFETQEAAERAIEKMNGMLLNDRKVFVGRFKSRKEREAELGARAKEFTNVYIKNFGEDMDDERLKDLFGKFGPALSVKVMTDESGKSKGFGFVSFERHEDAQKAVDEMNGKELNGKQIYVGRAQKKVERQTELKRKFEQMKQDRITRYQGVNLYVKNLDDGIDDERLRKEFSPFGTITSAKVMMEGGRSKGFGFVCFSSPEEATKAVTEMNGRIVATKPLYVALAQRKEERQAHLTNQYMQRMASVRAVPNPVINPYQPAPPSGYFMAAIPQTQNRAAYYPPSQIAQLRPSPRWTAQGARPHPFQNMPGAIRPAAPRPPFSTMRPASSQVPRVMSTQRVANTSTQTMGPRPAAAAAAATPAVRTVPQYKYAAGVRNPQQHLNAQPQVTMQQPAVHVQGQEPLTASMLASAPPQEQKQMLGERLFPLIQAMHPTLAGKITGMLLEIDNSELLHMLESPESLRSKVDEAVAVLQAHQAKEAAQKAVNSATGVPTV
The target of another test is Large T antigen (Simian virus 40, UniProt P03070). Format: functional, Betapolyomavirus macacae.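 Also: Confirmatory-stage PubChem screen for compounds that inhibit SV40 T antigen.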
Sequence of Large T antigen (P03070 whole entry): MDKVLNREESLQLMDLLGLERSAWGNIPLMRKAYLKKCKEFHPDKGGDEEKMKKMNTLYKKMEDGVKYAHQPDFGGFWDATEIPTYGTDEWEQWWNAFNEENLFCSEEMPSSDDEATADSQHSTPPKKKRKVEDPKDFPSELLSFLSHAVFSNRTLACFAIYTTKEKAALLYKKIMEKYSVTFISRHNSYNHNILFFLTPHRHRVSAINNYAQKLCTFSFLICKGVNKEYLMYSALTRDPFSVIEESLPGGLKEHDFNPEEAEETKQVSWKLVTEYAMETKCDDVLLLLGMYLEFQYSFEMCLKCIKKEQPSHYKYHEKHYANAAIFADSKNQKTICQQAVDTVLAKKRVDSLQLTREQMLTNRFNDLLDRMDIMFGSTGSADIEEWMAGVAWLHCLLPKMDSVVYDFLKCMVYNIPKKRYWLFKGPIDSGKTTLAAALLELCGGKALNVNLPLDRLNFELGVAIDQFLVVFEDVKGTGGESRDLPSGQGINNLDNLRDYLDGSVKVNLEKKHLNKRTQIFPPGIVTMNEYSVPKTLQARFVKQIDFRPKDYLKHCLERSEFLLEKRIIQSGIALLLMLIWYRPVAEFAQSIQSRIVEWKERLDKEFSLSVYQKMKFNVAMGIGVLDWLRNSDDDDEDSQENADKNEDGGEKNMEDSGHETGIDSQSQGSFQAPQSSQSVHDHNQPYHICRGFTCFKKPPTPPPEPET
Test [18] has as its target T1, Polyadenylate-binding protein 1. Kind of test: PABP1 MLLE–PAM2 interaction inhibitors, dose response, miRNA deadenylation inhibitor project, biochemical, fluorescence polarization, Cy5-PAM2 peptide, secondary (AID 602260). Format: functional. To be noted: read-out: IC50_Mean.
The next test addresses X-box-binding protein 1 (Homo sapiens, UniProt P17861). Format: functional, Cricetulus griseus.
For another test, the target named is Phosphomannomutase 2 (Homo sapiens, UniProt O15305). The experiment in a line: Counter screen SAR assay for PMM2 inhibitors via a fluorescence intensity assay. [Related pubchem assays (depositor defined):AID1545, AID1574].
Sequence of Phosphomannomutase 2 (O15305 whole entry): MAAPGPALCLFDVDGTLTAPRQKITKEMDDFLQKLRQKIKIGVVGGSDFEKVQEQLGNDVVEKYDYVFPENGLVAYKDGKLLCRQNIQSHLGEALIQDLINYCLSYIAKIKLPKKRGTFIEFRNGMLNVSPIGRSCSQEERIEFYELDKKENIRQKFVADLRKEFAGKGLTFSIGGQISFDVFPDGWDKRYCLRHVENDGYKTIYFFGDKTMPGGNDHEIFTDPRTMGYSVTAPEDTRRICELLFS
For test [19], the target named is T2, Mannose-6-phosphate isomerase (Homo sapiens, UniProt P34949).
T2 sequence (P34949 whole entry): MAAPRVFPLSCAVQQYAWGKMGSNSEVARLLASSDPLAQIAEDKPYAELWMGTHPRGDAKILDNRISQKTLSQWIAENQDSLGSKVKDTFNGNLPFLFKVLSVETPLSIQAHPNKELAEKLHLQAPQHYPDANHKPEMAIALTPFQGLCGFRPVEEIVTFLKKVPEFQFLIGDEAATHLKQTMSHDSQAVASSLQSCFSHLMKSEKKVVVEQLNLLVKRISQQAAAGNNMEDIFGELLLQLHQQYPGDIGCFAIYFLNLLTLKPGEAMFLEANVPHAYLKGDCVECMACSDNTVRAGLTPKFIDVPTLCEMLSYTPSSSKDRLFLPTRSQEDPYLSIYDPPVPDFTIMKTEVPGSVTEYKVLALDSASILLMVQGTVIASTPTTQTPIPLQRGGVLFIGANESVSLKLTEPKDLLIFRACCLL
Kind of test: PMI enzyme inhibitors, confirmation, biochemical, fluorescence intensity (AID 1535).

Test [20] concerns the target T3, Rac GTPase-activating protein 1 (Homo sapiens, UniProt Q9H0H5).
T3 sequence (Q9H0H5 whole entry): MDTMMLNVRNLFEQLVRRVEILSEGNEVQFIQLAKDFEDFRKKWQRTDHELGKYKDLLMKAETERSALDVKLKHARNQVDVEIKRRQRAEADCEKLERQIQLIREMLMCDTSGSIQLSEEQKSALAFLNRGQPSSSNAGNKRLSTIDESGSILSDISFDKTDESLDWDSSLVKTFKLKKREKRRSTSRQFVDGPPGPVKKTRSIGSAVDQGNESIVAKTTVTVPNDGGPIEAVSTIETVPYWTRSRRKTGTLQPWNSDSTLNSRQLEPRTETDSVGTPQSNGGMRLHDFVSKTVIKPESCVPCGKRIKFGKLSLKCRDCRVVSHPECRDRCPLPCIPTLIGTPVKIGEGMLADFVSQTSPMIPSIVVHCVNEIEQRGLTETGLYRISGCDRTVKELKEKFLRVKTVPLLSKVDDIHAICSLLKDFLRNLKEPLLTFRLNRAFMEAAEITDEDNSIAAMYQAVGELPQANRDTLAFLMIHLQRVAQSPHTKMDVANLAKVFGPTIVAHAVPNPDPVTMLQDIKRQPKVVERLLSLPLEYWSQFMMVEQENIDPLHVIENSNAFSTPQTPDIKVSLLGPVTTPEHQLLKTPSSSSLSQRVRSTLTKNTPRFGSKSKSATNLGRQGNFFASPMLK
Kind of test: MgcRacGAP GTPase-activating activity inhibitors, confirmation, biochemical, ADP Hunter fluorescence, primary and confirmatory (AID 624330). Type of test: functional.
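For Absolute IC50 (XBP1) in this document: confirmatory dose-response counter-screen serving a CHOP assay.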

Sequence of G-protein coupled receptor 55 (Q9Y2T6 whole entry): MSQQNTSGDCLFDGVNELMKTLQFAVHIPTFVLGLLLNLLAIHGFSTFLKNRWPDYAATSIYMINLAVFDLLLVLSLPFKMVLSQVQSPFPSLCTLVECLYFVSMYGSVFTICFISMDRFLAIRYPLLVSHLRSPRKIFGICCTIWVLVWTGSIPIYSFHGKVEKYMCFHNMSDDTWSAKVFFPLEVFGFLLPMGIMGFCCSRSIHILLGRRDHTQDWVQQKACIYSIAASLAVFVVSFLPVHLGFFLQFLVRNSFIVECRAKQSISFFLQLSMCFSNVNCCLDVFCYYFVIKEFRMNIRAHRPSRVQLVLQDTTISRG
Sequence of X-box-binding protein 1 (P17861 whole entry): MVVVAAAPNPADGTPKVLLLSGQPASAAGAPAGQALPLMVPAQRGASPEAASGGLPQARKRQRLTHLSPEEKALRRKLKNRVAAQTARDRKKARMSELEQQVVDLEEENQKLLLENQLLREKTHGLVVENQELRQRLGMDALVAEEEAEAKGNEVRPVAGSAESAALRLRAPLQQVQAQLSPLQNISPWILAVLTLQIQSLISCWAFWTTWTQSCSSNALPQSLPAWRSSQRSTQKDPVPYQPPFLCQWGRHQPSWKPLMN
Sequence of Beta-galactosidase (Q8VNN2 whole entry): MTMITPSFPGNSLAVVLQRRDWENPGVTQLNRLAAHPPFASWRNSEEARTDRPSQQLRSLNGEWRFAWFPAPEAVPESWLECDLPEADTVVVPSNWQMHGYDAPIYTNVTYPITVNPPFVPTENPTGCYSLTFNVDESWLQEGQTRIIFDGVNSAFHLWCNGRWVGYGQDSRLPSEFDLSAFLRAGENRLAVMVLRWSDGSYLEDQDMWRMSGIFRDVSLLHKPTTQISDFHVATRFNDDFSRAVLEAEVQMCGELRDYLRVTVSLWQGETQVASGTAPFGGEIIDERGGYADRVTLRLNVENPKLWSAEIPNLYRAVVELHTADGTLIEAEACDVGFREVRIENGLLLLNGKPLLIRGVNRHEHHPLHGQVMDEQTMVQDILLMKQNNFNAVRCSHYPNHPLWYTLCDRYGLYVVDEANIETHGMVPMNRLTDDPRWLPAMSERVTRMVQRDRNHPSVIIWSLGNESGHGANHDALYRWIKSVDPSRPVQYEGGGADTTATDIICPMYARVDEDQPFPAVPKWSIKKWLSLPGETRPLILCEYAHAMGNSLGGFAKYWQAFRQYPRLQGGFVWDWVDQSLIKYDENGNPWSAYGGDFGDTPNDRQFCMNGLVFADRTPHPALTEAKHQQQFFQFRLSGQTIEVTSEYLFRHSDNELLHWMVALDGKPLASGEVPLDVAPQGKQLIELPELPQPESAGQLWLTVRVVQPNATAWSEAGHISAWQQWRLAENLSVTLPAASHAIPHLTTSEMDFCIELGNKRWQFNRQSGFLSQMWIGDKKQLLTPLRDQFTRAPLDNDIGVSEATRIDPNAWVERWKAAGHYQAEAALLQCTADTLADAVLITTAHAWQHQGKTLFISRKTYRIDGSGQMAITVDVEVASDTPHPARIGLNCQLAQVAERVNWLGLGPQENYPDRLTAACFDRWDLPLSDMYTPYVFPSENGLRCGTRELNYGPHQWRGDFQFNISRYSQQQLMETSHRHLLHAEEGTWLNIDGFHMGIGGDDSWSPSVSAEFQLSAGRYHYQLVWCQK
Sequence of Glucose-6-phosphate 1-dehydrogenase (P11413 whole entry): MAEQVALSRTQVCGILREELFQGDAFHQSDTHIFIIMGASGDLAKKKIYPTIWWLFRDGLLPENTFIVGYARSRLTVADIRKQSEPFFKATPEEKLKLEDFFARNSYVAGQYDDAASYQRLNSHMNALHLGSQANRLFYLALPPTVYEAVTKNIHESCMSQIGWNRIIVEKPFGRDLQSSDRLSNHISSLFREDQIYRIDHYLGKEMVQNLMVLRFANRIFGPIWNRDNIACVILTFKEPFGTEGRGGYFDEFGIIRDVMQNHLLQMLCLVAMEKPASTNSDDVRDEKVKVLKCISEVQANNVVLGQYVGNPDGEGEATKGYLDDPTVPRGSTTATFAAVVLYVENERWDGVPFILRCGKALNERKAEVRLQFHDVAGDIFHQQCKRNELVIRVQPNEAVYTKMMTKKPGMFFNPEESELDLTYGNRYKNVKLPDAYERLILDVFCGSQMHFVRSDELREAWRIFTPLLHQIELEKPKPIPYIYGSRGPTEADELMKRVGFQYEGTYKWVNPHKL

As to `Cc1ccnc(NS(=O)(=O)c2ccc(NC(=O)c3ccc([N+](=O)[O-])s3)cc2)n1`, the EC50 was > 60 µM (not active) in test [1] and 0.967 µM (active) in test [2]. Also, in “cells”, the IC50 is 6.24 µM (active). Moreover, the 50% cytotoxic concentration (CC50) in test [3] was > 20 µM (active); in test [4] it was 10.2 µM (active); in test [5], > 20 µM (active).

As to `Cc1ccc(NC(=O)c2ccc(Cl)c(N3C(=O)C=CC3=O)c2)cc1`, the AC50 in [6] was 9.79 µM (active); in test [7], 5.17 µM (active); in test [8], 4.21 µM (active); in [9] it was 1.6 µM (active); in [10], 55.1 µM (active); in test [12], 3.64 µM (active). Also, in test [13], the half-maximal activity concentration (AC50) was 1.93 µM (active). Moreover, the IC50 on Beta-galactosidase was > 66.6 µM (inactive); in test [11] it was 48.8 µM (inactive); in [14] it was 37.7 µM (active).

Turning to `CCn1c(Cn2nnc(-c3ccccc3)n2)nnc1SCc1ccc(Cl)c(Cl)c1`, the IC50 in test [15] is 2.8 µM (active).

As for `Nc1nc2ccc(S(=O)(=O)N3CCCCC3)cc2s1`, in [16], the AC50 is 3.3 µM (active). Also, the IC50 in test [15] is 13.9 µM (inactive); in test [17], > 66 µM (inactive); on Large T antigen, 8.51 µM (active); in test [18], > 66 µM (inactive).

As for `CCOC(=O)c1c(NC(=O)Cc2cccs2)sc(C(=O)NC2CCCCC2)c1C`, the “Absolute IC50 (XBP1)” value at X-box-binding protein 1 is 10 µM.

For the compound `Sc1nnc(Nc2ccccc2Cl)s1`, the IC50 at Phosphomannomutase 2 was > 100 µM (inactive); in [19] it was > 50 µM (inactive); in test [20], 54.8 µM (active); in [14] it was > 100 µM (inactive).
